Measured values published in US11589588B2, “Methods of identification and use of nematicide compounds” (UNIVERSITY OF NEW HAMPSHIRE, priority 2013, dated 2023).

Experiments:
Type in all cases: in vivo
C. elegans [1] = test: Recovery of motility after contact with PDE inhibitor ceased; settings: 24 hours exposure, evaluated 24 hours after inhibitor removed
Protocol: Motility is shown relative to the control condition (i.e., motility of worms not contacted with the test drug). The black bars represent the fraction of motile worms after 24 hours of exposure to the PDE inhibitor. The grey bars represent the fraction of motile worms 24 hours after the exposure to the inhibitor ceased. The experiment was repeated three times and the data points represent the mean plus and minus the standard deviation.
(§1) The dauer state is morphologically similar to the infective states in juvenile phytoparasitic nematodes.
For the study, nematodes were exposed for 24 hours with the PDE inhibitor (at the concentration indicated in FIG. 15) and then plated out and evaluated for normal motility as described elsewhere in the Examples. […] Motility is shown relative to control motility in worms not contacted with the test drug.

C. elegans [2] = test: Motility of dauer state C. elegans exposed to PDE inhibitors; settings: among several PDE inhibitors tested
Protocol: as §1
For this study, worms were contacted with drugs and scored for motility at various time points after the drug treatment to determine how quick the motility defect occurred. Nematodes were scored at 0, 1, 2, 4, 8, and 24 hours after addition of the treatment. Concentrations were 4.9 μM cilostazol, 2.5 μM Rolipram, and 6.6 μM papaverine. […] The time is shown in hours after contact was initiated and the effect was determined by assessing the fraction of contacted works that were motile, relative to control worm motility (i.e., worms not contacted with the tested drug). Cilostazol, rolipram and papaverine were tested. […] The time is shown in hours after contact and the effect was determined by assessing the fraction of contacted works that were motile, relative to control worm motility (controls were worms not contacted with tested drug).

C. elegans [3] = test: Egg hatching / fecundity of C. elegans continuously exposed to PDE inhibitors; settings: continuous exposure at concentrations maximally reducing motility; juveniles counted on Day 5; FIG. 6; experiment performed once
Protocol: The number of newly hatched juveniles on Day 5 was counted and normalized to the reproductive success of the control condition (no inhibitor). This experiment was performed once.
To assess disruption of activities such as developmental progression leading to egg hatching in nematodes, C. elegans eggs are exposed to PDE inhibitors. The nematode eggs are exposed to a range of concentrations of family-specific PDE inhibitors, and inhibitors that prevent egg hatching are identified.
The number of hatched larvae in the treated group was compared to a control (untreated) group and the results are evaluated as a function of time up to 3 days after exposure to the PDE inhibitor.
The ability of these various PDE inhibitors to reduce the fecundity of C. elegans was also examined.

| SMILES | reversibility of drug effects on motility (C. elegans [1]) | effectiveness in reducing motility (C. elegans [2]) | effect on egg hatching (number of newly hatched juveniles relative to control) (C. elegans [3]) |
| --- | --- | --- | --- |
| COc1ccc(C2CNC(=O)C2)cc1OC1CCCC1 (centres unmarked) [rolipram] | reversed after 24 hours | most effective in reducing motility | – |
| CC(C)Cn1c(=O)n(C)c(=O)c2[nH]cnc21 [IBMX, 3-isobutyl-1-methylxanthine] | – | – | most effective in preventing egg hatching |
| CCOC(=O)C1=C[C@]2(CC)CCCN3CCc4c(n1c1ccccc41)[C@@H]32 [vinpocetine] | – | – | most effective in preventing egg hatching |
| OCCN(CCO)c1nc(N2CCCCC2)c2nc(N(CCO)CCO)nc(N3CCCCC3)c2n1 [dipyridamole] | – | – | enhanced egg hatching |
| Cn1cc(-c2ccncc2)c(-c2ccc(OCc3ccc4ccccc4n3)cc2)n1 [MP10] | reversed after 24 hours | most effective in reducing motility | – |
| O=C1CCc2cc(OCCCCc3nnnn3C3CCCCC3)ccc2N1 [cilostazol] | reversed after 24 hours | most effective in reducing motility | most effective in preventing egg hatching |
| COc1ccc(Cc2nccc3cc(OC)c(OC)cc23)cc1OC [papaverine] | reversed after 24 hours | most effective in reducing motility | – |
| Cc1[nH]c(=O)c(C#N)cc1-c1ccncc1 [milrinone] | reversed after 24 hours | most effective in reducing motility | – |
